Here are results for 1 compound from the NIST ThermoML archive (doi:10.1016/j.jct.2017.01.006).

Structures are written as SMILES. Numbers after ± are expanded uncertainties.

A short description of this series: Molar enthalpy of transition or fusion. The following applies: Crystal; DSC.

Take `Nc1ccc(N)c([N+](=O)[O-])c1` [2-nitro-1,4-benzenediamine]: the “Molar enthalpy of transition or fusion” value was determined as 16.4 ± 0.88 kJ/mol.
